This is an account of results in US9198425B2, “Herbicidally-effective sulfinyl aminobenzamides” (BAYER INTELLECTUAL PROPERTY GMBH, priority 2012, dated 2015).

Each structure is given as a SMILES string.

Common to all, as to assay: Pre-emergence herbicidal action
Type in all cases: in vivo

The test system of one experiment is Matricaria inodora. The conditions noted are these: dosage 320 g/ha. An excerpt:
(§1) Seeds of monocotyledonous and dicotyledonous weed plants and crop plants are placed in wood-fiber pots in sandy loam and covered with soil. The inventive compounds formulated in the form of wettable powders (WP) or as emulsion concentrates (EC) are then applied to the surface of the covering soil as an aqueous suspension or emulsion at a water application rate of 600 to 800 l/ha (converted) with addition of 0.2% wetting agent. After the treatment, the pots are placed in a greenhouse and kept under good growth conditions for the test plants. The damage to the test plants is assessed visually after a test period of 3 weeks by comparison with untreated controls (herbicidal activity in percent (%): 100% action=the plants have died, 0% action=like control plants). For example, compounds No. 6-102, 6-014 and 6-058 at an application rate of 320 g/ha each show at least 80% efficacy against Abutilon theophrasti, Amaranthus retroflexus and Matricaria inodora.
(§2) In accordance with the conditions specified for pre-emergence testing of herbicidal efficacy against harmful plants, comparative tests were conducted between inventive compounds and compounds known from WO 2011035874 A1.

The next experiment deals with Pharbitis purpureum. The note with it: dosage 320 g/ha.
Source text: as §1, §2

For another experiment, the system named is Amaranthus retroflexus. The note with it: dosage 320 g/ha.
Source text: as §1, §2

The test system of a further experiment is Veronica persica. The conditions noted are these: Table A, dosage 320 g/ha.
Source text: as §1, §2

The next experiment deals with Abutilon theophrasti. The note with it: dosage 320 g/ha.
Source text: as §1, §2

A further experiment deals with Stellaria media. The note with it: dosage 320 g/ha.
Source text: as §1, §2

The test system of a further experiment is Avena fatua. The conditions noted are these: Table C, dosage 320 g/ha.
Source text: as §1, §2

With `CCS(=O)(CC)=Nc1c(Cl)ccc(C(=O)Nc2nonc2C)c1Cl`, in the experiment on Matricaria inodora (Table A), the “Herbicidal efficacy against MATIN” value worked out at 90%. The “Herbicidal efficacy against PHBPU” value in the experiment with Pharbitis purpureum (Table A) was found to be 80%. In addition, the “Herbicidal efficacy against AMARE” value with Amaranthus retroflexus (Table A) is reported as 90%. Moreover, the “Herbicidal efficacy against VERPE” value with Veronica persica came out at 90%. In the experiment on Abutilon theophrasti (Table A), the “Herbicidal efficacy against ABUTH” value stood at 80%.
For the molecule `Cc1nonc1NC(=O)c1ccc(Cl)c(N=S2(=O)CCCCC2)c1Cl`, the “Herbicidal efficacy against MATIN” value with Matricaria inodora (Table B) amounted to 90%. In the experiment on Amaranthus retroflexus (Table B), the “Herbicidal efficacy against AMARE” value was found to be 60%. Also, the “Herbicidal efficacy against STEME” value in the experiment with Stellaria media (Table B) is recorded as 70%. Also, the “Herbicidal efficacy against ABUTH” value in the experiment on Abutilon theophrasti (Table B) was 90%.
With `Cc1nonc1NC(=O)c1ccc(Cl)c(N=S2(=O)CCOCC2)c1Cl`, in the experiment on Matricaria inodora (Table C), the “Herbicidal efficacy against MATIN” value stood at 100%. The “Herbicidal efficacy against PHBPU” value with Pharbitis purpureum (Table C) amounted to 100%. Also, the “Herbicidal efficacy against AVEFA” value with Avena fatua worked out at 70%. The “Herbicidal efficacy against STEME” value in the experiment with Stellaria media (Table C) came to 90%.
On to `Cc1nonc1NC(=O)c1ccc(Cl)c(N(C)C)c1Cl` [drawing 39], for which, in the experiment with Matricaria inodora (Table A), the “Herbicidal efficacy against MATIN” value is 0%. Besides, the “Herbicidal efficacy against PHBPU” value in the experiment with Pharbitis purpureum (Table A) came to 10%. Also, the “Herbicidal efficacy against AMARE” value in the experiment on Amaranthus retroflexus (Table A) is 30%. In the experiment with Veronica persica, the “Herbicidal efficacy against VERPE” value was 40%. For the same molecule, the “Herbicidal efficacy against ABUTH” value in the experiment on Abutilon theophrasti (Table A) is 0%.
In the case of `Cc1nonc1NC(=O)c1ccc(Cl)c(N(C)C)c1Cl` [drawing 41], the “Herbicidal efficacy against MATIN” value with Matricaria inodora (Table B) was 0%. The “Herbicidal efficacy against AMARE” value in the experiment on Amaranthus retroflexus (Table B) was determined as 30%. Further, the “Herbicidal efficacy against STEME” value with Stellaria media (Table B) is on record as 0%. Moreover, in the experiment with Abutilon theophrasti (Table B), the “Herbicidal efficacy against ABUTH” value is listed as 0%.
Regarding `Cc1nonc1NC(=O)c1ccc(Cl)c(N(C)C)c1Cl` [drawing 43], the “Herbicidal efficacy against MATIN” value in the experiment on Matricaria inodora (Table C) is 0%. In addition, in the experiment with Pharbitis purpureum (Table C), the “Herbicidal efficacy against PHBPU” value is recorded as 10%. Also, the “Herbicidal efficacy against AVEFA” value with Avena fatua is 0%. The “Herbicidal efficacy against STEME” value in the experiment on Stellaria media (Table C) came out at 0%.
